The text below walks through data of patent publication US7271158B2, “Treatment of rumen acidosis with α-amylase inhibitors” (Pfizer Inc., priority 2000, dated 2007).

Structures are written as SMILES.

One experiment deals with strained rumen liquor. Nature of the experiment: In vitro rumen propionic acid screen. It is filed as cell-based, Guernsey cow. Conditions: control normalised as 100%; for Total VFA: 6 h incubation; for % Propionate: molar proportion of propionic acid in total VFA. The procedure: In Vitro Rumen Propionic Acid Screen Rumen Fluid: An eight year old dry Guernsey cow, fitted with a rumen fistula (Bar Diamond Inc. P.O. Box. 60. Bar Diamond Lane. Parma. Id. 83660-0060. […] This animal was used as a source of rumen contents, which were taken at 08:00 h (before the morning feed). The material was carried to the laboratory in a pre-warmed insulated flask, and then strained through four layers of cotton gauze into another pre-warmed bottle, which was stored in an incubator at 40° C. until the fluid was dispensed into the assay tubes. Substrate Mixture: • 68 g corn starch. Ex Sigma Cat. S-4126. • 17 g α-cellulose. Ex Sigma Cat. C-6429. • 15 g Type 1 soya flour. Ex Sigma Cat. S-9633. • Mix well. The assay was conducted in 16 ml Sorvall centrifuge tubes A tablet containing 100 mg of acarbose was placed in 10 ml of buffer and shaken until the tablet was completely disrupted, giving a 10 mg/ml solution of acarbose. […] Control tubes were prepared by replacing the acarbose solution with buffer. One ml of substrate suspension was added to all the assay tubes, followed by 3 ml of warmed degassed buffer and then by 5 ml of strained rumen liquor. Suba-Seal stoppers (No. 29) were fitted, and the head pressure in the tubes reduced by passing a hypodermic needle attached to a vacuum line through the stopper until the tube contents frothed. The tubes were then placed in a 40° C. incubator for 6 hours and shaken hourly. Pre-incubation VFA concentration were determined by preparing three tubes as for incubation but 1 ml metaphosphoric/crotonic acids solution was added immediately following the rumen liquor. These tubes were stored at 4° C. and processed with the post-incubation tubes. The incubation was terminated after 6 h by removing the stoppers and adding 1 ml of metaphosphoric/crotonic acids solution. The tubes were then centrifuged for 8 minutes at 18,000 g at 4° C., and an aliquot of the supernatant stored in an automatic liquid sampler vial until required for VFA analysis by gas chromatography. (as described in […] protocol) Production of total VFA and propionate during the incubation was determined as follows. Firstly, first the pre-incubation concentrations of total VFA and propionic acid were calculated as the mean of the analyses of the pre-incubation samples. Then for each incubated sample, post-minus pre-incubation concentration gave production during incubation. The molar proportion of propionic acid in total VFA.produced during the incubation was also calculated. The total VFA and % propionic acid values were meaned for the replicate tubes, and the mean control total VFA and % propionic acid values normalised as 100%, then the change caused by the test treatments expressed relative to this value.

The subject of another experiment is E. faecalis. Nature of the experiment: Minimum inhibitory concentrations in aerobes (agar dilution).
The next experiment concerns E. coli. Described as above. Conditions: Escherichia coli. It counts as cell-based.

One may read the MIC as the smallest concentration in the dilution series that meets the test's criterion for growth inhibition. For the compound `CC1OC(OC2C(CO)OC(OC3C(CO)OC(O)C(O)C3O)C(O)C2O)C(O)C(O)C1NC1C=C(CO)C(O)C(O)C1O` (stereo not drawn) [Acarbose, acarbose], the “Total VFA” value with strained rumen liquor (dose 0.32 μg/ml) amounted to 96%; in the experiment on strained rumen liquor (dose 1.6 μg/ml), 92%; with strained rumen liquor (dose 8 μg/ml), 72%; in the experiment with strained rumen liquor (dose 40 μg/ml) it was 63%; in the experiment with strained rumen liquor (dose 200 μg/ml) it was 58%; with strained rumen liquor (dose 1000 μg/ml) it was 50%. For the same compound, the “% Propionate” value in the experiment with strained rumen liquor (dose 0.32 μg/ml) is given as 97%; in the experiment on strained rumen liquor (dose 1.6 μg/ml), 94%; in the experiment with strained rumen liquor (dose 8 μg/ml) it was 74%; in the experiment on strained rumen liquor (dose 40 μg/ml), 74%; in the experiment on strained rumen liquor (dose 200 μg/ml), 81%; in the experiment on strained rumen liquor (dose 1000 μg/ml), 88%. Also, the minimal inhibitory concentration (MIC) in the experiment on E. faecalis (E. faecalis 1.1.16), against E. faecalis (E. faecalis 1.1.4), in the experiment on E. faecalis (E. faecalis 1.10.4), in the experiment with E. faecalis (E. faecalis 1.3.13), in the experiment with E. faecalis (E. faecalis 1.4.12) and against E. faecalis (E. faecalis 1.6.6) was greater than 128 µg/mL each time. Moreover, the minimum inhibitory concentration (MIC) against E. faecalis (E. faecalis 1.9.5) was greater than 128 µg/mL; with E. faecalis (E. faecalis 28.5.7), greater than 128 µg/mL; with E. faecalis (E. faecalis 28.6.9) it was greater than 128 µg/mL; against E. faecalis (Enterococcus faecalis), greater than 128 µg/mL; with E. coli (ATCC10418, E. coli ATCC 10418), greater than 128 µg/mL; with E. coli (E. coli E517) it was greater than 128 µg/mL.
